Source: patent publication US9963712B2, “Gene IbENOD93 and transgenic plants using the same” (Korea University Research and Business Foundation, priority 2014, dated 2018)

How the values were obtained:
IbENOD93 gene = experiment: Regulation of IbENOD93 expression by plant hormone treatment (real-time PCR); assay type: in vivo, sweet potato; conditions: 3 hours, fibrous roots of single-leaf plantlets, 25° C., dark
Description: To determine the transcriptional regulation of IbENOD93 gene by treatment with auxin (Indole-3-acetic acid; IAA), jasmonic acid (JA), and […] (6-benzylaminopurine; BA), real-time PCR (RT-PCR) was performed using IbENOD93-specific primers (IbENOD93(360)F 5′-[…]-3′ (SEQ ID. NO.: 9) and IbENOD93(512)R 5′-[…]-3′ (SEQ ID. NO.: 10)).
The roots of sweet potato were treated with hormones according to the following method. Sweet potato plantlets bearing a single leaf and petiole were collected from sweet potato plants and incubated in flasks filled with water for 3 weeks. After fibrous roots had developed from the distal end of the petiole, the single-leaf plantlets were incubated in various concentrations of IAA, JA, and BA solutions (0, 50, 100, 200, 500, 1000 μM) at 25° C. in the dark for 3 hours. After the hormone treatment, total RNA was extracted from the fibrous roots using the RNeasy Plant Mini Kit™ (Qiagen) and used for RT-PCR.
Total RNA (5 μg) was used for first-strand cDNA synthesis using the SuperScript III first-strand cDNA synthesis kit (Invitrogen). The resulting cDNA solution was then diluted with 30 μl of TE and used for PCR. Among a total of 20 μl, 1 μl of the synthesized cDNA was used for the RT-PCR, and KAPA SYBR FAST Master mix (KAPABIOSYSTEMS) was used for a final reaction volume of 16 μl. Real-time PCR analysis was performed using the LightCycler 480 quantification system (Roche Diagnostics) according to the manufacturer's instructions. Expression levels were normalized with β-tubulin expression amplified with 5′-[…]-3′ (SEQ ID. NO.: 11) and 5′-[…]-3′ (SEQ ID. NO.: 12) primers. Real-time PCR was performed starting with pre-denaturation at 95° C. for 10 minutes, followed by 45 cycles of denaturation at 95° C. for 10 seconds, annealing at 58° C. for 10 seconds, and extension at 72° C. for 20 seconds. Following the amplification phase, a melting curve analysis was conducted from 65° C. to 97° C. The second derivative maximum method in the LightCycler 480 quantification software (Roche Diagnostics) was used to evaluate the data.

[1] = tested on: MADS-box genes (SRD1, IbMADS1); conditions: upon IAA or JA treatment; Noh et al. 2010, Ku et al. 2008; cited from earlier work

Row | SMILES | transcript level of IbENOD93 (IbENOD93 gene; BA at 100 μM or higher) | transcript level of IbENOD93 (IbENOD93 gene; 500 μM IAA) | transcript level of MADS-box genes (SRD1, IbMADS1) [1] | transcript level of IbENOD93 (IbENOD93 gene; 200 μM JA)
1 | c1ccc(CNc2ncnc3nc[nH]c23)cc1 [BA, 6-benzylaminopurine] | increased slightly | – | – | –
2 | O=C(O)Cc1c[nH]c2ccccc12 [IAA, Indole-3-acetic acid] | – | increased sharply | increased sharply | –
3 | CC/C=C\C[C@H]1C(=O)CC[C@@H]1CC(=O)O [JA, jasmonic acid] | – | – | increased sharply | increased sharply
